pIC50: −log10 of the molar value.
Tested on: 997726-040-R-J2-PDC tumor spheroids, viability
Test: Anticancer human tumor 997726-040-R-J2-PDC patient-derived squamous cell lung carcinoma cell line growth inhibition [PI3K]
Conditions: spheroids with HUVEC and MSC; for pIC50: curve of first compound; for viability, T/C: stronger effect = lower value
Summary of the method: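 Combination activity was assessed by viability in multicellular tumor spheroids carrying HUVEC and MSC components. Agents were tested with PI3K inhibitors from a Cmax-based top dose (or 10 microM) downward in half-log increments.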

[1] = second compound 0.00316 µM, first compound 0.0316 µM
[2] = second compound 0.00316 µM, first compound 0.1 µM
[3] = second compound 0.00316 µM, first compound 0.316 µM
[4] = second compound 0.00316 µM, first compound 1 µM
[5] = second compound 0.00316 µM, first compound 3.16 µM
[6] = second compound 0.00316 µM, first compound 10 µM
[7] = second compound 0.01 µM, first compound 0.0316 µM
[8] = second compound 0.01 µM, first compound 0.1 µM
[9] = second compound 0.01 µM, first compound 0.316 µM
[10] = second compound 0.01 µM, first compound 1 µM
[11] = second compound 0.01 µM, first compound 3.16 µM
[12] = second compound 0.01 µM, first compound 10 µM
[13] = second compound 0.0316 µM, first compound 0.0316 µM
[14] = second compound 0.0316 µM, first compound 0.1 µM
[15] = second compound 0.0316 µM, first compound 0.316 µM
[16] = second compound 0.0316 µM, first compound 1 µM
[17] = second compound 0.0316 µM, first compound 3.16 µM
[18] = second compound 0.0316 µM, first compound 10 µM
[19] = second compound 0.1 µM, first compound 0.0316 µM
[20] = second compound 0.1 µM, first compound 0.1 µM
[21] = second compound 0.1 µM, first compound 0.316 µM
[22] = second compound 0.1 µM, first compound 1 µM
[23] = second compound 0.1 µM, first compound 3.16 µM
[24] = second compound 0.1 µM, first compound 10 µM
[25] = second compound 0.316 µM, first compound 0.0316 µM
[26] = second compound 0.316 µM, first compound 0.1 µM
[27] = second compound 0.316 µM, first compound 0.316 µM
[28] = second compound 0.316 µM, first compound 1 µM
[29] = second compound 0.316 µM, first compound 3.16 µM
[30] = second compound 0.316 µM, first compound 10 µM
[31] = second compound 1 µM, first compound 0.0316 µM
[32] = second compound 1 µM, first compound 0.1 µM
[33] = second compound 1 µM, first compound 0.316 µM
[34] = second compound 1 µM, first compound 1 µM
[35] = second compound 1 µM, first compound 3.16 µM
[36] = second compound 1 µM, first compound 10 µM
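Also: spheroids exposed to compounds for seven days before readout.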

C#Cc1c(F)ccc2cc(O)cc(-c3ncc4c(N5CC6CCC(C5)N6)nc(OCC56CCCN5CC(F)C6)nc4c3F)c12 (stereo not given) + COc1c(OCCCN2CCOCC2)ccc2c3n(c(=NC(=O)c4cnc(N)nc4)nc12)CCN3
pIC50 (second compound 0.00316 µM): < 5.00 | pIC50 (second compound 0.01 µM): 5.29 | pIC50 (second compound 0.0316 µM): > 7.50 | pIC50 (second compound 0.1 µM): > 7.50 | pIC50 (second compound 0.316 µM): > 7.50 | pIC50 (second compound 1 µM): > 7.50 | viability, T/C [1]: 73.6% | viability, T/C [2]: 74.5% | viability, T/C [3]: 69.3% | viability, T/C [4]: 76% | viability, T/C [5]: 72% | viability, T/C [6]: 58.5% | viability, T/C [7]: 63.7% | viability, T/C [8]: 57.6% | viability, T/C [9]: 55.5% | viability, T/C [10]: 57.2% | viability, T/C [11]: 51.3% | viability, T/C [12]: 47.1% | viability, T/C [13]: 36.1% | viability, T/C [14]: 35% | viability, T/C [15]: 30% | viability, T/C [16]: 32.6% | viability, T/C [17]: 28.7% | viability, T/C [18]: 27.7% | viability, T/C [19]: 23% | viability, T/C [20]: 21.7% | viability, T/C [21]: 20.9% | viability, T/C [22]: 22.2% | viability, T/C [23]: 20.1% | viability, T/C [24]: 17.6% | viability, T/C [25]: 4.68% | viability, T/C [26]: 5.65% | viability, T/C [27]: 4.53% | viability, T/C [28]: 4.98% | viability, T/C [29]: 4.96% | viability, T/C [30]: 3.97% | viability, T/C [31]: 1.7% | viability, T/C [32]: 1.08% | viability, T/C [33]: 1.16% | viability, T/C [34]: 0.96% | viability, T/C [35]: 0.92% | viability, T/C [36]: 0.86%

C=CC(=O)N1CCN(c2nc(=O)n(-c3c(C)ccnc3C(C)C)c3nc(-c4c(O)cccc4F)c(F)cc23)C(C)C1 (stereo not given) + COc1c(OCCCN2CCOCC2)ccc2c3n(c(=NC(=O)c4cnc(N)nc4)nc12)CCN3
pIC50 (second compound 0.00316 µM): < 5.00 | pIC50 (second compound 0.01 µM): < 5.00 | pIC50 (second compound 0.0316 µM): > 7.50 | pIC50 (second compound 0.1 µM): > 7.50 | pIC50 (second compound 0.316 µM): > 7.50 | pIC50 (second compound 1 µM): > 7.50 | viability, T/C [1]: 71.2% | viability, T/C [2]: 72.5% | viability, T/C [3]: 85.4% | viability, T/C [4]: 77.6% | viability, T/C [5]: 92.2% | viability, T/C [6]: 96.4% | viability, T/C [7]: 53% | viability, T/C [8]: 57.5% | viability, T/C [9]: 51.2% | viability, T/C [10]: 62.9% | viability, T/C [11]: 63.1% | viability, T/C [12]: 57.1% | viability, T/C [13]: 33.9% | viability, T/C [14]: 36% | viability, T/C [15]: 34.4% | viability, T/C [16]: 40.5% | viability, T/C [17]: 43.2% | viability, T/C [18]: 34.8% | viability, T/C [19]: 28% | viability, T/C [20]: 24.4% | viability, T/C [21]: 25.1% | viability, T/C [22]: 23.3% | viability, T/C [23]: 22.9% | viability, T/C [24]: 21.8% | viability, T/C [25]: 6.57% | viability, T/C [26]: 6.07% | viability, T/C [27]: 5.29% | viability, T/C [28]: 5.93% | viability, T/C [29]: 4.93% | viability, T/C [30]: 4.59% | viability, T/C [31]: 2.71% | viability, T/C [32]: 1.42% | viability, T/C [33]: 1.53% | viability, T/C [34]: 1.33% | viability, T/C [35]: 1.27% | viability, T/C [36]: 1.57%

CC(Cn1ccc(-c2ccc(C#N)c(Cl)c2)n1)NC(=O)c1cc(C(C)O)[nH]n1 (stereo not given) + COc1c(OCCCN2CCOCC2)ccc2c3n(c(=NC(=O)c4cnc(N)nc4)nc12)CCN3
pIC50 (second compound 0.00316 µM): < 5.00 | pIC50 (second compound 0.01 µM): < 5.00 | pIC50 (second compound 0.0316 µM): > 7.50 | pIC50 (second compound 0.1 µM): > 7.50 | pIC50 (second compound 0.316 µM): > 7.50 | pIC50 (second compound 1 µM): > 7.50 | viability, T/C [1]: 69.7% | viability, T/C [2]: 67% | viability, T/C [3]: 78.8% | viability, T/C [4]: 78.8% | viability, T/C [5]: 82.3% | viability, T/C [6]: 74% | viability, T/C [7]: 57.3% | viability, T/C [8]: 60.4% | viability, T/C [9]: 59.9% | viability, T/C [10]: 56.1% | viability, T/C [11]: 54.6% | viability, T/C [12]: 54.8% | viability, T/C [13]: 35.7% | viability, T/C [14]: 36.3% | viability, T/C [15]: 41% | viability, T/C [16]: 33.6% | viability, T/C [17]: 37.6% | viability, T/C [18]: 37.2% | viability, T/C [19]: 23% | viability, T/C [20]: 21.4% | viability, T/C [21]: 21.5% | viability, T/C [22]: 24.5% | viability, T/C [23]: 22.6% | viability, T/C [24]: 22.9% | viability, T/C [25]: 4.78% | viability, T/C [26]: 4.57% | viability, T/C [27]: 5.76% | viability, T/C [28]: 6.82% | viability, T/C [29]: 4.57% | viability, T/C [30]: 5.74% | viability, T/C [31]: 1.37% | viability, T/C [32]: 1.18% | viability, T/C [33]: 1.28% | viability, T/C [34]: 1.44% | viability, T/C [35]: 1.61% | viability, T/C [36]: 1.51%

CC1(C)CCC(Nc2ncc(C(F)(F)F)c(-c3c[nH]c4c(P(C)(C)=O)c(C#N)ccc34)n2)CN1 (stereo not given) + COc1c(OCCCN2CCOCC2)ccc2c3n(c(=NC(=O)c4cnc(N)nc4)nc12)CCN3
pIC50 (second compound 0.00316 µM): > 7.50 | pIC50 (second compound 0.01 µM): > 7.50 | pIC50 (second compound 0.0316 µM): > 7.50 | pIC50 (second compound 0.1 µM): > 7.50 | pIC50 (second compound 0.316 µM): > 7.50 | pIC50 (second compound 1 µM): > 7.50 | viability, T/C [1]: 36.8% | viability, T/C [2]: 34.2% | viability, T/C [3]: 40.7% | viability, T/C [4]: 34.8% | viability, T/C [5]: 39.8% | viability, T/C [6]: 16.6% | viability, T/C [7]: 27% | viability, T/C [8]: 28.9% | viability, T/C [9]: 29.9% | viability, T/C [10]: 30.5% | viability, T/C [11]: 33.6% | viability, T/C [12]: 12.6% | viability, T/C [13]: 21.4% | viability, T/C [14]: 17.6% | viability, T/C [15]: 18.2% | viability, T/C [16]: 24.8% | viability, T/C [17]: 23.9% | viability, T/C [18]: 7.84% | viability, T/C [19]: 13.5% | viability, T/C [20]: 12.1% | viability, T/C [21]: 13.2% | viability, T/C [22]: 13.9% | viability, T/C [23]: 15% | viability, T/C [24]: 2.98% | viability, T/C [25]: 3.97% | viability, T/C [26]: 3.68% | viability, T/C [27]: 3.96% | viability, T/C [28]: 5.01% | viability, T/C [29]: 4.34% | viability, T/C [30]: 0.66% | viability, T/C [31]: 0.85% | viability, T/C [32]: 0.74% | viability, T/C [33]: 0.9% | viability, T/C [34]: 0.76% | viability, T/C [35]: 0.9% | viability, T/C [36]: 0.33%

Cn1nccc1Nc1nccc(-c2ccn(C(CO)c3ccc(Cl)c(F)c3)c(=O)c2)n1 (stereo not given) + COc1c(OCCCN2CCOCC2)ccc2c3n(c(=NC(=O)c4cnc(N)nc4)nc12)CCN3
pIC50 (second compound 0.00316 µM): 6.52 | pIC50 (second compound 0.01 µM): 7.39 | pIC50 (second compound 0.0316 µM): > 7.50 | pIC50 (second compound 0.1 µM): > 7.50 | pIC50 (second compound 0.316 µM): > 7.50 | pIC50 (second compound 1 µM): > 7.50 | viability, T/C [1]: 70.4% | viability, T/C [2]: 66.3% | viability, T/C [3]: 49.1% | viability, T/C [4]: 51.9% | viability, T/C [5]: 44.8% | viability, T/C [6]: 49.8% | viability, T/C [7]: 52% | viability, T/C [8]: 47.7% | viability, T/C [9]: 40.3% | viability, T/C [10]: 43.9% | viability, T/C [11]: 42.1% | viability, T/C [12]: 34.2% | viability, T/C [13]: 37.3% | viability, T/C [14]: 35.5% | viability, T/C [15]: 26.8% | viability, T/C [16]: 27.5% | viability, T/C [17]: 27.3% | viability, T/C [18]: 25.2% | viability, T/C [19]: 20.4% | viability, T/C [20]: 20.2% | viability, T/C [21]: 18.3% | viability, T/C [22]: 19% | viability, T/C [23]: 20% | viability, T/C [24]: 11.8% | viability, T/C [25]: 5.76% | viability, T/C [26]: 4.79% | viability, T/C [27]: 5.29% | viability, T/C [28]: 3.62% | viability, T/C [29]: 3.85% | viability, T/C [30]: 0.65% | viability, T/C [31]: 0.97% | viability, T/C [32]: 1.38% | viability, T/C [33]: 1.3% | viability, T/C [34]: 0.75% | viability, T/C [35]: 0.59% | viability, T/C [36]: 0.31%

Reference: PubChem BioAssay AID1963964 (Molecular Pharmacology Branch, DTP, NCI, 2024)
